Assay results taken from patent publication US20130053372A1, “5-HT RECEPTOR MODULATORS” (Cambridge Enterprise Limited, priority 2010, published 2013).

Legend:
gp5-HT1B [1] = molecular target: T1, gp5-HT1B (Cavia porcellus, UniProt O08892); assay: Guinea-pig iliac artery functional assay at gp5-HT1B (GPI); type: cell-based; set-up: from tissue; host or cells: guinea-pig common iliac artery segments; conditions: classified as antagonism, agonism or no effect at 10 μM, against 5-nonyloxytryptamine contraction; monohydrochloride salt
T1 sequence (O08892 whole entry): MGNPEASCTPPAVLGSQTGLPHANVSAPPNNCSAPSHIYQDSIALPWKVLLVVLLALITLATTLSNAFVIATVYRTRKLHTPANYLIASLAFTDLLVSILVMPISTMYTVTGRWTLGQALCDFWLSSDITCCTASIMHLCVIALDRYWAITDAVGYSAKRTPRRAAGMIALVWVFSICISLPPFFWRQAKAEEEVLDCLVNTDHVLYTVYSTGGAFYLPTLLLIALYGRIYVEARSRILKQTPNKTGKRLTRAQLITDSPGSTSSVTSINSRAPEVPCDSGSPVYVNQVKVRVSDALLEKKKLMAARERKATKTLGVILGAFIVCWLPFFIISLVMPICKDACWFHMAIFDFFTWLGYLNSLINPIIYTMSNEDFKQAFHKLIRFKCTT
Method: Protocol for Determination of Efficacy at gp5-HT1B Receptors in the Guinea-Pig Iliac Artery. (GPI)
Guinea-pig common iliac artery segments (1.0-1.5 mm long) from Dunkin-Harley guinea-pigs (250 g-500 g) were mounted under normalized tension in oxygenated (95% O2; 5% CO2) Krebs-Henseleit solution (NaCl, 118 mM; KCl, 4.7 mM; MgSO4, 1.2 mM; KH2PO4, 1.2 mM; NaHCO3, 25 mM; CaCl2, 2.5 mM; D-glucose, 11 mM; and with indomethacin, 10 μM). After 30 min equilibration, the vessels were precontracted with 5-HT (10 μM) and tested for endothelial integrity by administration of carbachol (10 μM), endothelium-intact vessels (relaxation ≧90% to carbachol) were used for the experiments. Concentration/contraction curves to cumulative addition of 5-nonyloxytryptamine (5-NOT; a 5-HT1B receptor-selective agonist) were constructed in 25 mM KCl Krebs-Henseleit solution (standard Krebs-Henseleit solution in which the KCl concentration was increased to 25 mM by equimolar substitution of NaCl). Vessels were incubated with putative antagonists for 30 min before construction of a concentration/contraction curve for 5-NOT. Contractile responses were expressed as a percentage of the tone induced by Krebs-Henseleit solution containing 90 mM KCl after substitution of an equivalent amount of NaCl with KCl in standard Krebs-Henseleit solution. Data were analysed using non-linear procedures by fitting to a logistic equation: E=(Rmax.[A]^nH)/EC50^nH+[A]^nH), where E is the contraction induced, [A] the concentration of the agonist, Rmax the maximal increase in tension induced, nH the slope function and EC50 the concentration of producing half the maximal contractile tone. Potency was assessed using the Gaddum equation: […] where [A] is the concentration of the putative antagonist and Ka its affinity constant at the 5-HT1B receptor. Compounds are classified as having antagonism, agonism or no effect at a dose concentration of 10 μM.

gp5-HT1B [2] = molecular target: T1, gp5-HT1B; assay: Guinea-pig frontal cortex membrane binding at gp5-HT1B (GPF); set-up: from tissue; host or cells: guinea-pig frontal cortex membranes; conditions: monohydrochloride salt; for Kd: Kd from IC50 by Cheng & Prusoff, read-out: (GPF) Guinea-Pig Frontal Cortex membrane binding Affinity at gp5-HT1B Kd; for IC50: [3H]GR125743 displacement
Method: Binding Protocol for Determination of Affinity in gp5-HY1B in Guinea-Pig Frontal Cortex Membranes. (GPF)
Guinea-pig frontal cortex membranes were resuspended in a buffer (50 mM Tris-HCl, 4 mM MgCl, 2.5 mM CaCl2, 1 mM EDTA and 120 mM NaCl pH 7.4) to a final concentration of 5-6 μg protein μl^−1. Receptor binding was initiated by the addition of membranes and carried out in a volume of 0.5 ml at 27° C. Non-specific binding was determined by pre-incubation for 15 min with 10 μM SB214461 (N-(3-(2-(dimethylamino)ethoxy)-4-methoxyphenyl)-2′-methyl-4′-(5-methyl-1,2,4-oxadiazol-3-yl)biphenyl-4-carboxamide, Eur. J. Pharmacol. 1997, 331, 169-174). The amount of binding in the presence or absence of a competing ligand was determined by incubation at 27° C. for 60 min with 0.6 nM [N-methyl ^3H] GR125743 (GE Life Science Products). Incubation was terminated by rapid vacuum filtration through GF/B glass fibre filters that had been presoaked in 3% polyethylenimine. Samples were washed 3 times with 1.5 ml ice-cold buffer (50 mM Tris-HCl, pH 7.4) and bound radioactivity determined by liquid scintillation counting after leaving the filters in contact with the scintillation fluid for at least 4 h before counting for 5 min in a liquid scintillation analyzer.
(§1) Specific binding was determined as B—BNS/(BTot—BNS) where B is the binding in the presence of a given competing ligand, BNS is the non-specific binding of radioligand (i.e. the binding in the presence of 10 μM SB214461), and BTot is the amount of binding of radioligand in the absence of a competing ligand. Data for specific binding as a function of the concentration of competing ligand were fitted to a single-site model to obtain a value for IC50. Kd values were derived from IC50 by the Cheng & Prusoff equation (Cheng Y, Prusoff W H (1973). Biochem Pharmacol 22, 3099-3108).

rat r5-HT1B receptors = molecular target: T2, rat r5-HT1B receptors (Rattus norvegicus, UniProt P28564); assay: Binding affinity at rat r5-HT1B receptors, rat cerebral cortex membrane binding (RBA); conditions: value in parentheses; monohydrochloride salt
T2 construct: from tissue
T2 sequence (P28564 whole entry): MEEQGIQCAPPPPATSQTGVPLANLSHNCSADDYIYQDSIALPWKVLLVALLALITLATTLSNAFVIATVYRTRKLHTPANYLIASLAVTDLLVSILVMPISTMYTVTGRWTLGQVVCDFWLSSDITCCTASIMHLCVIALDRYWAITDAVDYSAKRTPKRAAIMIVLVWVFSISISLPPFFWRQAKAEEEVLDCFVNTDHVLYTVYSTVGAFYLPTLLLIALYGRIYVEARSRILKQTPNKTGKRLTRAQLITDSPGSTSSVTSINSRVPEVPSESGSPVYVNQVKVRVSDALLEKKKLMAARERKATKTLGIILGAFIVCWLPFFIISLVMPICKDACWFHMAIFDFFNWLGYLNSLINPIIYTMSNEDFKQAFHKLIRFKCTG
Method: Binding Protocol for Determination of Affinity at rat r5-HT 1B Receptors (RBA)
This binding affinity protocol was performed according to standard conditions disclosed in Eur. J. Pharmacol. 1985, 118, 1-12.

human h5-HT1B receptor = human h5-HT1B receptor (Homo sapiens, UniProt P28222); assay: Binding affinity at human h5-HT1B receptors (HBA); conditions: [3H]GR125743 displacement; Kd from IC50 by Cheng & Prusoff; monohydrochloride salt
Sequence of human h5-HT1B receptor (P28222 whole entry): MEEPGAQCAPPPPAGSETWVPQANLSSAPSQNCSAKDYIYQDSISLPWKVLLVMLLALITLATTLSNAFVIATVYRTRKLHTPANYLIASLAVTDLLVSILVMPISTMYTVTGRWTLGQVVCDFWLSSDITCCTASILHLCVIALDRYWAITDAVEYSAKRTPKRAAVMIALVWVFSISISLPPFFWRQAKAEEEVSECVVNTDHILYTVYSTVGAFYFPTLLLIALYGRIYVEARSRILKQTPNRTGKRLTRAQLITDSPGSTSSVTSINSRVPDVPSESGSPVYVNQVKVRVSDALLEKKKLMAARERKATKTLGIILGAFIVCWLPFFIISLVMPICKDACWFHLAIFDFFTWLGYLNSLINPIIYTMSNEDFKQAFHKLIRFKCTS
Method: Binding Protocol for Determination of Binding Affinity at Human […] Receptors (HBA)
Membrane preparations (5 μg in a volume of 100 μl per sample) expressing the human h5-HT1B receptor were preincubated at 27° C. in buffer (50 mM Tris HCl, 10 mM MgCl2 and 1 mM EDTA; pH 7.4) with or without 10 μM SB214461 (N-(3-(2-(dimethylamino)ethoxy)-4-methoxyphenyl)-2′-methyl-4′-(5-methyl-1,2,4-oxadiazol-3-yl)biphenyl-4-carboxamide, Eur. J. Pharmacol. 1997, 331, 169-174) (to determine non-specific binding). Receptor binding was determined by incubation at 27° C. with 3.5 nM [N-methyl-^3H] GR125743 (GE Life Science Products) for 90 min. The incubations were terminated by rapid vacuum filtration through GF/B glass fibre filters that had been presoaked in 3% polyethylenimine. Samples were washed 3 times with 1.5 ml ice-cold buffer (50 mM Tris-HCl, pH 7.4) and bound radioactivity determined by liquid scintillation counting after leaving the filters in contact with the scintillation fluid (4 ml Quicksafe ‘A’, Zinsser, Maidenhead, UK) for at least 4 h before counting for 5 min in a liquid scintillation analyzer.
as §1, with “[…].” for “IC50.”

Compound	(GPI) Guinea-Pig Iliac Artery functional assay at gp5-HT1B (gp5-HT1B [1])	Kd (gp5-HT1B [2])	IC50 (gp5-HT1B [2])	IC50 (rat r5-HT1B receptors)	Kd (human h5-HT1B receptor)
COc1ccc(N2CCCC2=O)cc1N1CCC(N(C)C)CC1 [13e, 1-(3-(4-(dimethylamino)piperidin-1-yl)-4-methoxyphenyl)pyrrolidin-2-one, reference compound]	Antagonist	–	–	–	–
COc1ccc(N2CCCC2=O)cc1N(C)CCN(C)C [13f, 1-(3-((2-(dimethylamino)ethyl)(methyl)amino)-4-methoxyphenyl)pyrrolidin-2-one, reference compound]	No effect	–	–	–	–
COc1ccc(N2CCCC2=O)cc1N1CCN(C)CC1 [Example 5a, 1-(4-methoxy-3-(4-methylpiperazin-1-yl)phenyl)pyrrolidin-2-one]	Antagonist	15000 nM	30000 nM	–	–
COc1ccc(N2CCCC2=O)cc1N1C[C@@H](C)N[C@@H](C)C1 [Example 13a, 1-(3-((3R,5S)-3,5-dimethylpiperazin-1-yl)-4-methoxyphenyl)pyrrolidin-2-one]	Antagonist	–	–	–	–
COc1ccc(N2CCOC2=O)cc1N1CCN(C)CC1 [Example 13b, 3-(4-methoxy-3-(4-methylpiperazin-1-yl)phenyl)oxazolidin-2-one]	Antagonist	–	–	–	–
COc1ccc(N2CCCC2=O)cc1N1CCCN(C)CC1 [Example 13c, 1-(4-methoxy-3-(4-methyl-1,4-diazepan-1-yl)phenyl)pyrrolidin-2-one]	Antagonist	–	–	–	–
COc1ccc(N2CCOC2=O)cc1N1C[C@@H](C)N[C@@H](C)C1 [Example 13d, 3-(3-((3R,5S)-3,5-dimethylpiperazin-1-yl)-4-methoxyphenyl)oxazolidin-2-one]	No effect	–	–	–	–
COc1ccc(N2CCCS2(=O)=O)cc1N1CCCN(C)CC1 [Example 18b, 2-(4-methoxy-3-(4-methyl-1,4-diazepan-1-yl)phenyl)-1,1-dioxoisothiazolidine]	–	–	–	12000 nM	–
C[C@@H]1CN(c2cc(N3CCCC3=O)cc3c2OCC3)C[C@H](C)N1 [Example 26b, 1-(7-((3S,5R)-3,5-dimethylpiperazin-1-yl)-2,3-dihydrobenzofuran-5-yl)pyrrolidin-2-one]	–	–	–	9600 nM	–
CN1CCN(c2cc(N3CCCC3=O)ccc2F)CC1 [Example 30, 1-(4-fluoro-3-(4-methylpiperazin-1-yl)phenyl)pyrollidin-2-one]	Antagonist	2000 nM	4000 nM	–	–
CN1CCN(c2cc(N3CCCC3=O)cc3ccoc23)CC1 [Example 45, 1-(7-(4-methylpiperazin-1-yl)benzofuran-5-yl)pyrrolidin-2-one]	Antagonist	200 nM	400 nM	–	4500 nM
CN1CCN(c2cc(N3CCOC3=O)cc3ccoc23)CC1 [Example 47a, 3-(7-(4-methylpiperazin-1-yl)benzofuran-5-yl)oxazolidin-2-one]	Antagonist	225 nM	450 nM	–	13500 nM
COC(=O)N1CCN(c2cc(N3CCN(C)CC3)c3occc3c2)S1(=O)=O [Example 49a, methyl 5-(7-(4-methylpiperazin-1-yl)benzofuran-5-yl)-1,1-dioxo-1,2,5-thiadiazolidine-2-carboxylate]	Antagonist	230 nM	460 nM	–	1800 nM
CN1CCN(c2cc(N3CCNS3(=O)=O)cc3ccoc23)CC1 [Example 50a, 2-(7-(4-methylpiperazin-1-yl)benzofuran-5-yl)-1,1-dioxo-1,2,5-thiadiazolidine]	Antagonist	700 nM	1400 nM	860 nM	–
